In US20220000157A1, “MOUTH-COATING FEEL ENHANCER” (AJINOMOTO CO., INC., priority 2019, published 2022):

Test system: panel of 3 experts
Assay: Sensory evaluation of strength of mouth-coating feel of mayonnaise, single compounds in ethanol (Experimental Example 14)
Type: in vivo
Details: for mouth-coating feel (in words): Table 20
Description: as a Positive Control, General Commercially Available mayonnaise (manufactured by Ajinomoto Co., Inc., trade name “Pure Select (registered trade mark) mayonnaise”, oil and fat content: 73%) added with ethanol (manufactured by Japan Alcohol Corporation) (0.001 wt %) was used.
As a negative control, commercially available mayonnaise (manufactured by Ajinomoto Co., Inc., trade name “Pure Select (registered trade mark) KOKUUMA (registered trade mark) 65% Calorie Cut”, oil and fat content: 23%) with a smaller oil and fat content as compared with positive control mayonnaise and added with ethanol (manufactured by Japan Alcohol Corporation) (0.001 wt %) was used.
Given amounts of β-caryophyllene, β-caryophyllene oxide, clovanediol, (1R,3Z,5R,9S)-4,11,11-trimethyl-8-methylenebicyclo[7.2.0]undec-3-en-5-ol, (1R,4R,5R,9S)-4,11,11-trimethyl-8-methylenebicyclo[7.2.0]undecane-4,5-diol, clovanediol-3-monoacetate, clovanediol diacetate, clovanediol-3-monoisovalerate, α-pinene, α-pinene oxide, limonene, limonene oxide, α-terpineol (clovanediol, (1R,3Z,5R,9S)-4,11,11-trimethyl-8-methylenebicyclo[7.2.0]undec-3-en-5-ol, (1R,4R,5R,9S)-4,11,11-trimethyl-8-methylenebicyclo[7.2.0]undecane-4,5-diol, clovanediol-3-monoacetate, clovanediol diacetate and clovanediol-3-monoisovalerate used were those obtained in the above-mentioned Synthetic Examples and others used were manufactured by Sigma-Aldrich) were dissolved in ethanol (manufactured by Japan Alcohol Corporation), the ethanol (0.001 wt %) was added to the commercially available mayonnaise used for preparation of the above-mentioned negative control, and the obtained mayonnaise was used as an evaluation sample. The amounts of β-caryophyllene, β-caryophyllene oxide, clovanediol, (1R,3Z,5R,9S)-4,11,11-trimethyl-8-methylenebicyclo[7.2.0]undec-3-en-5-ol, (1R,4R,5R,9S)-4,11,11-trimethyl-8-methylenebicyclo[7.2.0]undecane-4,5-diol, clovanediol-3-monoacetate, clovanediol diacetate, clovanediol-3-monoisovalerate, α-pinene, α-pinene oxide, limonene, limonene oxide, α-terpineol dissolved in ethanol were each adjusted to fall within the range of 0.01-1 ppm with respect to mayonnaise, as shown in the following Table 20.
For the evaluation of the strength of the mouth-coating feel, a panel of 3 experts ate each mayonnaise of positive control, negative control and evaluation sample, and graded the evaluation samples in 0.1 point increments in the range of 0.0 to 5.0 points, with the positive control being 5.0 points and the negative control being 0.0 point.

[1] = concentration 1 ppm with respect to mayonnaise
[2] = concentration 0.01 ppm with respect to mayonnaise
[3] = concentration 0.1 ppm with respect to mayonnaise

| SMILES | mouth-coating feel (in words) | strength of mouth-coating feel [1] [points] | strength of mouth-coating feel [2] [points] | strength of mouth-coating feel [3] [points] |
| --- | --- | --- | --- | --- |
| C=C1CC[C@@H](O)/C(C)=C\C[C@@H]2[C@@H]1CC2(C)C [(1R,3Z,5R,9S)-4,11,11-trimethyl-8-methylenebicyclo[7.2.0]undec-3-en-5-ol] | enhanced | 3.0 |  |  |
| C=C1CC[C@@H](O)[C@](C)(O)CC[C@@H]2[C@@H]1CC2(C)C [(1R,4R,5R,9S)-4,11,11-trimethyl-8-methylenebicyclo[7.2.0]undecane-4,5-diol] | enhanced | 3.3 |  |  |
| CC(=O)O[C@H]1CC(C)(C)[C@@H]2CC[C@]3(C)C[C@]12CC[C@H]3OC(C)=O [clovanediol diacetate] | enhanced | 3.2 |  |  |
| CC(=O)O[C@H]1CC(C)(C)[C@@H]2CC[C@]3(C)C[C@]12CC[C@H]3O [clovanediol-3-monoacetate] | enhanced | 3.0 |  |  |
| CC(C)CC(=O)O[C@H]1CC(C)(C)[C@@H]2CC[C@]3(C)C[C@]12CC[C@H]3O [clovanediol-3-monoisovalerate] | enhanced | 3.2 |  |  |
| CC1(C)C[C@H](O)[C@]23CC[C@@H](O)[C@](C)(CC[C@@H]12)C3 [clovanediol] | enhanced | 3.1 |  |  |
| C=C(C)C1CCC2(C)OC2C1 (stereo not drawn) [limonene oxide] | enhanced | 2.8 |  |  |
| C=C(C)[C@H]1CC=C(C)CC1 [limonene, reference compound] |  | 0.0 |  |  |
| CC1(C)C2CC3OC3(C)C1C2 (stereo not drawn) [α-pinene oxide] | enhanced | 3.3 |  |  |
| CC1=CCC2CC1C2(C)C (stereo not drawn) [α-pinene, reference compound] |  | 0.6 |  |  |
| CC1=CCC(C(C)(C)O)CC1 (stereo not drawn) [α-terpineol] | enhanced | 2.0 |  |  |
| C=C1CC[C@H]2O[C@]2(C)CC[C@@H]2[C@@H]1CC2(C)C [β-caryophyllene oxide] | enhanced | 3.6 | 1.5 | 2.6 |
| C=C1CC/C=C(\C)CC[C@@H]2[C@@H]1CC2(C)C [β-caryophyllene, reference compound] |  | 0.1 | 0.0 | 0.0 |
